Data on 16 compounds can be found in patent US11634425B2, “Pharmaceutical compounds” (priority 2019, dated 2023).

Series [1] can be described thus: in vitro. It counts as in vitro ADME. Particulars: microsomes, pH 7.4, 1 μM compound, 0.5 mg/mL protein, read-out: Liver Microsomal Stability t1/2. As for the experimental part: Compounds were subjected to the following assays to investigate liver microsomal stability and hepatocyte stability.
Microsomal Incubation: Experimental Procedure
Pooled liver microsomes were purchased from a reputable commercial supplier and stored at −80° C. prior to use. Microsomes (final protein concentration 0.5 mg/mL), 0.1 M phosphate buffer pH 7.4 and test compound (final substrate concentration 1 μM; final DMSO concentration 0.25%) were pre-incubated at 37° C. prior to the addition of NADPH (final concentration 1 mM) to initiate the reaction. The final incubation volume was 50 μL. A control incubation was included for each compound tested where 0.1 M phosphate buffer pH 7.4 was added instead of NADPH (minus NADPH). Two control compounds were included with each species. All incubations were performed singularly for each test compound. Each compound was incubated for 0, 5, 15, 30 and 45 min. The control (minus NADPH) was incubated for 45 min only. The reactions were stopped by transferring incubate into acetonitrile at the appropriate time points, in a 1:3 ratio. The termination plates are centrifuged at 3,000 rpm for 20 min at 4° C. to precipitate the protein. Following protein precipitation, the sample supernatants were combined in cassettes of up to 4 compounds, internal standard added, and samples analysed by LC-MS/MS. From a plot of ln peak area ratio (compound peak area/internal standard peak area) against time, the gradient of the line was determined. Subsequently, half-life (t1/2) and intrinsic clearance (CLint) were calculated.
(Microsomes from liver hold many membrane-bound enzymes, among them those of drug oxidation.)

Series [2] has as its system RSV A2. Kind of series: RSV plaque reduction assay. Format: cell-based, respiratory syncytial virus (RSV). Particulars: human respiratory syncytial virus, HepG2, Hep-G2 cells, mean of at least two experiments. A digest of the protocol:
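EC50 is the 50% reduction in immunostained plaque count versus virus-control wells, interpolated from variable-slope 4-parameter fits and averaged over at least two runs. Hep-G2 cells were infected with 100 PFU/well RSV A2 premixed with compound, with the inoculum removed after 2 h. Incubation continued at 37 °C for 2 days under a CMC overlay with compound.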
For orientation: Plaque reduction counts the foci of infection that form in a cell layer.

The nature of series [3]: Cell cytotoxicity (CC50). The settings on record: human; mean of at least two experiments. Format: cell-based. A digest of the protocol: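 Values are means of ≥2 independent runs, rounded to whole units, from 4-parameter variable-slope curve fits. Toxicity measured in Hep-G2 cells run alongside RSV plaque-reduction assays.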

Where two headings read alike, the source gives them in different places. Bounds are passed on as bounds.

For `O=C(N[C@H]1N=C(c2ccccc2)c2ccccc2NC1=O)c1c(-c2ccccc2)nn2cccnc12` [Example 12, N-[(3S)-2-oxo-5-phenyl-1,3-dihydro-1,4-benzodiazepin-3-yl]-2-phenylpyrazolo[1,5-a]pyrimidine-3-carboxamide], the figures for the half-life at 1 μM in series [1] (dog), in series [1] (human) and in series [1] (rat) were 3.87 h, 4.4 h and more than 2.33 h, respectively. The concentration giving a half-maximal response (EC50) (in general, the concentration at which the effect is half-maximal) in series [2] came to 153 nM. Moreover, the CC50 (commonly the concentration at which the toxic effect on the cells reaches its halfway point) in series [3] is more than 25000 nM.

`CN1C[C@@H]2C[C@H]1CN2c1ccc2nc(-c3ccccc3)c(C(=O)N[C@H]3N=C(c4ccccc4)c4cccc(F)c4NC3=O)n2n1` [Example 80, N-[(3S)-9-fluoro-2-oxo-5-phenyl-1,3-dihydro-1,4-benzodiazepin-3-yl]-6-[(1S,4S)-5-methyl-2,5-diazabicyclo[2.2.1]heptan-2-yl]-2-phenylimidazo[1,2-b]pyridazine-3-carboxamide]: the half-life at 1 μM is 2.98 h in series [1] (dog), 2.4 h in series [1] (human) and 1.9 h in series [1] (rat). The same compound gave an EC50 in series [2] of 51 nM. Also, in series [3], the CC50 is 13800 nM.

On to `O=C(N[C@H]1N=C(c2ccccc2)c2cccc(F)c2NC1=O)c1c(-c2ccc(C3CC3)nc2)nn2cccnc12` [Example 30, 2-(6-Cyclopropylpyridin-3-yl)-N-[(3S)-9-fluoro-2-oxo-5-phenyl-1,3-dihydro-1,4-benzodiazepin-3-yl]pyrazolo[1,5-a]pyrimidine-3-carboxamide], for which the results for the half-life at 1 μM in series [1] (dog), in series [1] (human) and in series [1] (rat) were 4.88 h, 3.02 h and 4.43 h, respectively. Further, the 50% effective concentration (EC50) in series [2] was determined as 62 nM. In addition, the CC50 in series [3] was more than 25000 nM.

In the case of `Cc1ccc2nc(-c3ccc(F)cc3F)c(C(=O)N[C@H]3N=C(c4ccccc4)c4cccc(F)c4NC3=O)n2n1` [Example 91, 2-(2,4-Difluorophenyl)-N-[(3S)-9-fluoro-2-oxo-5-phenyl-1,3-dihydro-1,4-benzodiazepin-3-yl]-6-methylimidazo[1,2-b]pyridazine-3-carboxamide], the half-life at 1 μM in series [1] (dog) was found to be 4.47 h; in series [1] (human) it was 1.68 h; in series [1] (rat), 0.61 h. The same compound had an EC50 in series [2] of 17 nM. Moreover, the half-maximal cytotoxic concentration (CC50) in series [3] is more than 25000 nM.

Consider `CC(C)Nc1ccc(-c2nn3cccnc3c2C(=O)N[C@H]2N=C(c3ccccc3)c3ccccc3NC2=O)c(F)n1` [Example 69, 2-[2-Fluoro-6-(propan-2-ylamino)pyridin-3-yl]-N-[(3S)-2-oxo-5-phenyl-1,3-dihydro-1,4-benzodiazepin-3-yl]pyrazolo[1,5-a]pyrimidine-3-carboxamide], for which the half-life at 1 μM amounted to 0.447 h in series [1] (dog), 3.22 h in series [1] (human) and 2.43 h in series [1] (rat). In series [2], the EC50 turned out to be 19 nM. Moreover, in series [3], the CC50 is more than 25000 nM.

With `Cc1cncc(-c2nn3cccnc3c2C(=O)N[C@H]2N=C(c3ccccc3)c3cccc(F)c3NC2=O)c1` [Example 64, N-[(3S)-9-fluoro-2-oxo-5-phenyl-1,3-dihydro-1,4-benzodiazepin-3-yl]-2-(5-methylpyridin-3-yl)pyrazolo[1,5-a]pyrimidine-3-carboxamide], the half-life at 1 μM in series [1] (dog) is 3.58 h; in series [1] (human), 24.2 h; in series [1] (rat), 1.7 h. For the same compound, the EC50 in series [2] is 100 nM. The same compound had a CC50 in series [3] of more than 18800 nM.

Regarding `CNc1ccc(-c2nn3cccnc3c2C(=O)N[C@H]2N=C(c3ccccc3)c3ccccc3NC2=O)cc1` [Example 1, 2-[4-(Methylamino)phenyl]-N-[(3S)-2-oxo-5-phenyl-1,3-dihydro-1,4-benzodiazepin-3-yl]pyrazolo[1,5-a]pyrimidine-3-carboxamide], the values for the half-life at 1 μM in series [1] (dog), in series [1] (human) and in series [1] (rat) were 1.25 h, 1.22 h and 0.678 h, respectively. The same compound yielded an EC50 in series [2] of 35 nM. In series [3], this compound registered a CC50 of more than 25000 nM.

As for `CN1CC(Oc2ccc3nc(-c4ccccc4)c(C(=O)N[C@H]4N=C(c5ccccc5)c5cccc(F)c5NC4=O)n3n2)C1` [Example 109, N-[(3S)-9-Fluoro-2-oxo-5-phenyl-1,3-dihydro-1,4-benzodiazepin-3-yl]-6-(1-methylazetidin-3-yl)oxy-2-phenylimidazo[1,2-b]pyridazine-3-carboxamide], the half-life at 1 μM in series [1] (dog) was 4.33 h; in series [1] (human) it was 1.3 h; in series [1] (rat) it was 1.15 h. The midpoint of the response in series [2], the EC50, lay at 96 nM. The compound further returned a CC50 in series [3] of more than 16800 nM.

In the case of `O=C(N[C@H]1N=C(c2ccccc2)c2cccc(F)c2NC1=O)c1c(-c2ccccc2F)nc2ccc(Cl)nn12` [Example 116, 6-Chloro-N-[(3S)-9-fluoro-2-oxo-5-phenyl-1,3-dihydro-1,4-benzodiazepin-3-yl]-2-(2-fluorophenyl)imidazo[1,2-b]pyridazine-3-carboxamide], the half-life at 1 μM in series [1] (dog) is more than 2.33 h; in series [1] (human), more than 2.33 h; in series [1] (rat), 0.957 h. The EC50 in series [2] was determined as 33 nM. The CC50 in series [3] was more than 25000 nM.

Turning to `CNc1ccc(-c2nn3cccnc3c2C(=O)N[C@H]2N=C(c3ccccc3)c3ccccc3NC2=O)c(F)c1` [Example 16, 2-[2-Fluoro-4-(methylamino)phenyl]-N-[(3S)-2-oxo-5-phenyl-1,3-dihydro-1,4-benzodiazepin-3-yl]pyrazolo[1,5-a]pyrimidine-3-carboxamide], the half-life at 1 μM in series [1] (dog) worked out at 0.657 h; in series [1] (human), 1.5 h; in series [1] (rat) it was 0.652 h. In series [2], this compound came in with an EC50 of 18 nM. Further, in series [3], the CC50 was more than 25000 nM.

Turning to `CN1CC(Oc2ccc3nc(-c4ccccc4F)c(C(=O)N[C@H]4N=C(c5ccccc5)c5cccc(F)c5NC4=O)n3n2)C1` [Example 108, N-[(3S)-9-Fluoro-2-oxo-5-phenyl-1,3-dihydro-1,4-benzodiazepin-3-yl]-2-(2-fluorophenyl)-6-(1-methylazetidin-3-yl)oxyimidazo[1,2-b]pyridazine-3-carboxamide], the half-life at 1 μM was found to be 2.88 h in series [1] (dog), 1.3 h in series [1] (human) and 1.14 h in series [1] (rat). Further, in series [2], the midpoint of the response, the EC50, lay at 84 nM. The compound further had a 50% cytotoxic concentration (CC50) in series [3] of 21900 nM.

Consider `[2H]C([2H])([2H])Oc1ccc2nc(-c3ccccc3)c(C(=O)N[C@H]3N=C(c4ccccc4)c4cccc(F)c4NC3=O)n2n1` [Example 114, N-[(3S)-9-fluoro-2-oxo-5-phenyl-1,3-dihydro-1,4-benzodiazepin-3-yl]-2-phenyl-6-(trideuteriomethoxy)imidazo[1,2-b]pyridazine-3-carboxamide], for which the half-life at 1 μM in series [1] (dog) worked out at 5.5 h; in series [1] (human), 4.1 h; in series [1] (rat) it was 2.03 h. The compound further returned a concentration for a half-maximal effect (EC50) in series [2] of 39 nM. The same compound registered a CC50 in series [3] of more than 25000 nM.

Take `CC1COCCN1c1ccc(-c2nn3cccnc3c2C(=O)N[C@H]2N=C(c3ccccc3)c3cccc(F)c3NC2=O)cn1` (stereo partly drawn) [Example 68, 2-[6-(3-Methylmorpholin-4-yl)pyridin-3-yl]-N-[(3S)-9-fluoro-2-oxo-5-phenyl-1,3-dihydro-1,4-benzodiazepin-3-yl]pyrazolo[1,5-a]pyrimidine-3-carboxamide]: the EC50 in series [2] was determined as 115 nM. Also, the 50% cytotoxic concentration (CC50) in series [3] was more than 25000 nM.

In turn, `O=C(N[C@H]1N=C(c2ccccc2)c2cccc(F)c2NC1=O)c1c(-c2ccccc2F)nc2ccc(N3CCOCC3)nn12` [Example 79, N-[(3S)-9-Fluoro-2-oxo-5-phenyl-1,3-dihydro-1,4-benzodiazepin-3-yl]-2-(2-fluorophenyl)-6-morpholin-4-ylimidazo[1,2-b]pyridazine-3-carboxamide] displayed a half-maximal effective concentration (EC50) in series [2] of 26 nM. This compound came in with a CC50 in series [3] of more than 25000 nM.

As for `Cc1cc(-c2nn3cccnc3c2C(=O)N[C@H]2N=C(c3ccccc3)c3cccc(F)c3NC2=O)ccn1` [Example 52, N-[(3S)-9-fluoro-2-oxo-5-phenyl-1,3-dihydro-1,4-benzodiazepin-3-yl]-2-(2-methylpyridin-4-yl)pyrazolo[1,5-a]pyrimidine-3-carboxamide], in series [2], the response was half-maximal at 103 nM (EC50). Further, the CC50 in series [3] is more than 25000 nM.

Compound `COCCc1ccc(-c2nn3cccnc3c2C(=O)N[C@H]2N=C(c3ccccc3)c3cccc(F)c3NC2=O)cn1` [Example 51, 2-[6-(2-methoxyethyl)pyridin-3-yl]-N-[(3S)-9-fluoro-2-oxo-5-phenyl-1,3-dihydro-1,4-benzodiazepin-3-yl]pyrazolo[1,5-a]pyrimidine-3-carboxamide] registered an EC50 in series [2] of 92 nM. Moreover, the CC50 in series [3] was more than 25000 nM.
